{"source": "paper PMC11238919", "about": "(Virulence, 2024)", "key": {"[1]": {"target": "T1, SHIP2-SH2 domain (Homo sapiens, UniProt O15357)", "T1 sequence (O15357 21-117 limits assumed)": "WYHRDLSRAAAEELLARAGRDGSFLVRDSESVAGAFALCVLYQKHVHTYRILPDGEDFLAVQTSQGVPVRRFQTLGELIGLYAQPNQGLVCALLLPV", "experiment": "SPR affinity of EPIpYA peptides to immobilized SHIP2-SH2 domain", "format": "binding", "conditions": "EPIpYA-D versus EPIpYA-C"}, "[2]": {"system": "hummingbird phenotype of infected cells", "experiment": "Hummingbird phenotype of infected cells", "format": "cell-based", "conditions": "SHP099 10 µM added 48 h before infection"}, "[3]": {"system": "SHIP2", "conditions": "ref [15]; cited from earlier work"}, "[4]": {"system": "SHP2", "conditions": "ref [10]; cited from earlier work"}, "[5]": {"target": "T2, His-tagged SHIP2-SH2 domain (UniProt O15357 21-117)", "T2 sequence (looked up)": "T1 sequence (O15357 21-117 limits assumed)", "experiment": "SPR"}}, "note": "Where “and” joins values, the source holds several entries; their conditions need not be identical. Equal values may be shown once. Where no end group is shown, it is not given here. [ ]: non-standard residue; d: D form. pY = N[C@@H](Cc1ccc(OP(=O)(O)O)cc1)C(=O)O"}
{"molecule": "CC[C@H](C)[C@H](NC(=O)[C@@H](NC(=O)[C@H](C)NC(=O)[C@H](Cc1ccc(OP(=O)(O)O)cc1)NC(=O)[C@@H](NC(=O)[C@@H]1CCCN1C(=O)[C@H](CCC(=O)O)NC(=O)[C@@H]1CCCN1C(=O)[C@H](CO)NC(=O)[C@H](C)N)[C@@H](C)CC)[C@@H](C)O)C(=O)N[C@@H](CC(=O)O)C(=O)N[C@@H](Cc1ccccc1)C(=O)N[C@@H](CC(=O)O)C(=O)O", "note": "[EPIpYA-D]", "values": [{"measurement": "KD approximately 10 times lower than that of EPIpYA-C", "setting": "[1]", "value": "approximately 10 times"}]}
{"molecule": "CC1(N)CCN(c2cnc(-c3cccc(Cl)c3Cl)c(N)n2)CC1", "note": "[SHP099]", "values": [{"measurement": "differences in morphological changes between strain groups", "setting": "[2]", "value": "the differences in the morphological changes between the groups were not obvious"}]}
{"molecule": "EPIYA-C: EPIYA-C motif of CagA^W (literature)", "values": [{"measurement": "binding to SHIP2, EPIYA-C versus EPIYA-D", "setting": "[3]", "value": "binds slightly strongly to EPIYA-C than EPIYA-D"}]}
{"molecule": "EPIYA-D: CagA^E-specific EPIYA-D segment (literature)", "values": [{"measurement": "binding to SHP2, EPIYA-D versus EPIYA-C", "setting": "[4]", "value": "binds to SHP2 more strongly than the EPIYA-C segment"}]}
{"molecule": "ASPEPI[pY]ATIDFD", "note": "[tyrosine-phosphorylated EPIYA-D peptide (ASPEPIpYATIDFD)]", "values": [{"measurement": "Kd", "setting": "[5]", "value": "890 nM and 896 nM"}]}
{"molecule": "VSPEPI[pY]ATIDDL", "note": "[tyrosine-phosphorylated EPIYA-C peptide (VSPEPIpYATIDDL)]", "values": [{"measurement": "Kd", "setting": "[5]", "value": 8350, "unit": "nM"}]}
